The record followed here is patent US11420976B2 (priority 2020, dated 2022).

Experiment [1] deals with rHMPV-GFP (recombinant HMPV CAN97-83, MPV-GFP1). The experiment can be described thus: HMPV antiviral assay (eGFP fluorescence in Vero E6 cells). The settings on record: Vero C1008, 120 h, read-out: rHMPV-GFP EC50. It is filed as cell-based. On the procedure:
HMPV antiviral activity was evaluated using a recombinant version of HMPV CAN97-83 engineered to contain the coding sequence for enhanced green fluorescence protein (eGFP) in the 3′ end of the virus genome (MPV-GFP1, ViraTree). Vero E6 cells (ATCC #CCL-7) were seeded at a density of 12,000 cells/100 μL/well into 96-well cell plates (VENDOR) one day prior to the assay. On the day of screening, the cell culture medium was aspirated from the wells and cells were washed twice with serum-free Eagle's Modified Essential Medium (EMEM, ATCC #) containing 1% penicillin-streptomycin (Invitrogen) (SF-EMEM). Cell washes were performed by dispensing 100 μL SF-EMEM per well and immediately aspirating the wash medium from the well. Following the second wash step, serum-free OptiMEM (Invitrogen, Cat No.) (SF-OptiMEM) containing 0.5 μg/mL TPCK-Trypsin (VENDOR) and 1% penicillin-streptomycin was added to the cells at 50 μL/well. Compounds were added into the 96-well plates using a JANUS automated liquid handling system (VENDOR). Compounds were initially diluted 1:50 into an intermediate 96-well plate containing SF-OptiMEM prior to transfer to the assay plate (25 μL/well). Each of the test compounds was tested in duplicate wells at final concentrations starting from 8 μM or 2 μM using ½ stepwise dilutions for a total of 8 points. Virus infection was performed by preparing a working stock of MPV-GFP1 at a multiplicity of infection (MOI) equal to 0.05/25 μL and aliquoting 25 μL of virus inoculum to the compound and positive control wells. SF-OptiMEM was added (25 μL/well) to the appropriate wells to serve as a virus-free negative control for the assay. The final DMSO concentration of all wells is 0.5%. Plates were incubated at 32° C., 5% CO2 for 5 days. After 5 days incubation, eGFP fluorescence intensity was measured at […] using a Spectramax i3X plate reader (VENDOR). Percent viral inhibition was calculated using the following equation: y=[[…]]×100 Where XQ is the fluorescence intensity measured in a well containing recombinant MPV-GFP1-infected, compound-treated cells and XP is the average fluorescence intensity measured in the wells containing untreated cells infected with recombinant virus. EC50 values were then calculated by non-linear regression using a four parameter curve logistic equation. The curve fit model employed was XLFit Dose Response One Site Model 200: y=(A+(B/(1+((x/C)^D)))) Where A is the minimum y value, B is the maximum y value, C is the log EC50 value, and D is the slope factor. The EC50 of each compound is listed in Table 2 and EC50 ranges are as follows: A<0.2 μM; B≥0.2 μM.

In experiment [2] the test system is Human RSV-A (“Long” strain). Briefly: RSV-A assay (CPE, ATPlite readout in Hep-2 cells). The settings on record: human respiratory syncytial virus, 120 h, Hep-2 cells, MOI 0.1, 5-day incubation, ATPlite, read-out: Human RSV-A (“Long” strain) EC50. It is filed as cell-based. The text has this: Hep-2 cells, (originally derived from tumors grown in irradiated-cortisonised weanling rats that had been injected with epidermoid carcinoma tissue from a person's larynx, but later found to be indistinguishable from HeLa cells by PCR DNA analysis), were used for the culturing of genotype A, “Long” strain RSV. Flasks were inoculated with RSV and viral stocks were collected once cytopathic effect (CPE) was greater than 90%. Viral stocks in 25% sucrose media were snap frozen using liquid nitrogen to increase viral stability. Viral stock titers were quantified by tissue culture infectious dose 50% (TCID50) using 8,000 cells per well and 3-fold viral dilutions across a 96-well plate, cultured for 4 days. Viral stock titers were also quantified by a plaque forming unit assay, as described elsewhere.
Following extensive parameter testing, the final assay is run as follows: Hep-2 cells are seeded into the inner 60 wells of a 96-well plate at 8,000 cells per well in a volume of 50 μL using Growth Media (DMEM without phenol red, 1% L-Glut, 1% Penn/Strep, 1% nonessential amino acids, 10% heat-inactivated FBS). 2-fold serial dilutions of control and test compounds are added to the wells in duplicate in a total volume of 25 μL. Viral stock is then added to the wells at a multiplicity of infection (MOI) of 0.1 in a volume of 25 μL, bringing the total volume of each well to 100 μL. The MOI is calculated using the PFU/mL, or TCID50 if unavailable. Each 96-well plate has a control column of 6 wells with cells and virus but no compound (negative control, max CPE), a column with cells but no compound or virus (positive control, minimum CPE), and a column with no cells or virus or compound (background plate/reagent control). The control wells with cells but no virus are given an additional […], of growth media containing an equal quantity of sucrose as those wells receiving the viral stock in order to keep consistent in media and volume conditions. The outer wells of the plate are filled with 125 μL of moat media (DMEM, 1% Penn/Strep) to act as a thermal and evaporative moat around the test wells. Following a 5-day incubation period, the plates are read using ATPlite (50 uL added per well), which quantifies the amount of ATP (a measure of cell health) present in each well. Assay plates are read using the Envision luminometer. […] EC50 ranges are as follows: A<0.2 μM; B≥0.2 μM.
For orientation: Cellular ATP, detected with luciferase, serves as a proxy for viable cell number.

Where two headings read alike, the source gives them in different places.

`COc1cc(C(=O)NC[C@](O)(c2cc3c(c(-c4ccc(F)cc4)n2)OC[C@@]3(NC(=O)COC(C)=O)C(F)(F)F)C(F)(F)F)ccc1OC1CC1` [Example 13, 2-(((R)-5-((S)-3-(4-cyclopropoxy-3-methoxybenzamido)-1,1,1-trifluoro-2-hydroxypropan-2-yl)-7-(4-fluorophenyl)-3-(trifluoromethyl)-2,3-dihydrofuro[2,3-c]pyridin-3-yl)amino)-2-oxoethyl acetate]: the EC50 in experiment [1] was greater than 200 nM; in experiment [2] it was less than 200 nM.

With `N[C@@]1(C(F)(F)F)COc2c1cc([C@@](O)(CNC(=O)c1ccc(OC3CC3)c(OC3CC3)c1)C1CC1)nc2-c1ccc(F)cc1` [Example 19, N—((S)-2-((R)-3-amino-7-(4-fluorophenyl)-3-(trifluoromethyl)-2,3-dihydrofuro[2,3-c]pyridin-5-yl)-2-cyclopropyl-2-hydroxyethyl)-3,4-dicyclopropoxybenzamide], the EC50 in experiment [1] and in experiment [2] was less than 200 nM in each case.

For `C[C@](O)(CNC(=O)c1ccc(OC2CC2)c(OC2CC2)c1)c1cc2c(c(-c3ccc(F)cc3)n1)OC[C@@]2(N)C(F)(F)F` [Example 20, N—((S)-2-((R)-3-amino-7-(4-fluorophenyl)-3-(trifluoromethyl)-2,3-dihydrofuro[2,3-c]pyridin-5-yl)-2-hydroxypropyl)-3,4-dicyclopropoxybenzamide], the concentration for a half-maximal effect (EC50) in experiment [1] and in experiment [2] was less than 200 nM in each case.

Consider `COc1cc(C(=O)NC[C@](C)(O)c2cc3c(c(-c4ccc(F)c(F)c4)n2)OC[C@@]3(N)C(F)(F)F)ccc1OC1CC1` [Example 22, N—((S)-2-((R)-3-amino-7-(3,4-difluorophenyl)-3-(trifluoromethyl)-2,3-dihydrofuro[2,3-c]pyridin-5-yl)-2-hydroxypropyl)-4-cyclopropoxy-3-methoxybenzamide], for which the EC50 in experiment [1] and in experiment [2] was less than 200 nM throughout.

With `COc1cc(C(=O)NC[C@](O)(c2cc3c(c(-c4ccc(F)c(F)c4)n2)OC[C@@]3(N)C(F)(F)F)C2CC2)ccc1OC1CC1` [Example 23, N—((S)-2-((R)-3-amino-7-(3,4-difluorophenyl)-3-(trifluoromethyl)-2,3-dihydrofuro[2,3-c]pyridin-5-yl)-2-cyclopropyl-2-hydroxyethyl)-4-cyclopropoxy-3-methoxybenzamide], the EC50 in experiment [1] and in experiment [2] was less than 200 nM each time.

Regarding `COc1cc(C(=O)NC[C@](C)(O)c2cc3c(c(-c4ccc(F)c(Cl)c4)n2)OC[C@@]3(N)C(F)(F)F)ccc1OC1CC1` [Example 24, N—((S)-2-((R)-3-amino-7-(3-chloro-4-fluorophenyl)-3-(trifluoromethyl)-2,3-dihydrofuro[2,3-c]pyridin-5-yl)-2-hydroxypropyl)-4-cyclopropoxy-3-methoxybenzamide], the concentration for a half-maximal effect (EC50) in experiment [1] and in experiment [2] was less than 200 nM each time.

Take `COc1cc(C(=O)NC[C@](O)(c2cc3c(c(-c4ccc(F)c(Cl)c4)n2)OC[C@@]3(N)C(F)(F)F)C2CC2)ccc1OC1CC1` [Example 25, N—((S)-2-((R)-3-amino-7-(3-chloro-4-fluorophenyl)-3-(trifluoromethyl)-2,3-dihydrofuro[2,3-c]pyridin-5-yl)-2-cyclopropyl-2-hydroxyethyl)-4-cyclopropoxy-3-methoxybenzamide]: the EC50 in experiment [1] and in experiment [2] was less than 200 nM each time.

As for `C[C@](O)(CNC(=O)c1ccc(OC2CC2)c(OC2CC2)c1)c1cc2c(c(-c3ccc(F)c(F)c3)n1)OC[C@@]2(N)C(F)(F)F` [Example 26, N—((S)-2-((R)-3-amino-7-(3,4-difluorophenyl)-3-(trifluoromethyl)-2,3-dihydrofuro[2,3-c]pyridin-5-yl)-2-hydroxypropyl)-3,4-dicyclopropoxybenzamide], the EC50 in experiment [1] and in experiment [2] was less than 200 nM each time.

On to `N[C@@]1(C(F)(F)F)COc2c1cc([C@@](O)(CNC(=O)c1ccc(OC3CC3)c(OC3CC3)c1)C1CC1)nc2-c1ccc(F)c(F)c1` [Example 27, N—((S)-2-((R)-3-amino-7-(3,4-difluorophenyl)-3-(trifluoromethyl)-2,3-dihydrofuro[2,3-c]pyridin-5-yl)-2-cyclopropyl-2-hydroxyethyl)-3,4-dicyclopropoxybenzamide], for which the EC50 in experiment [1] and in experiment [2] was less than 200 nM in each case.

As to `C[C@](O)(CNC(=O)c1ccc(OC2CC2)c(OC2CC2)c1)c1cc2c(c(-c3ccc(F)c(Cl)c3)n1)OC[C@@]2(N)C(F)(F)F` [Example 28, N—((S)-2-((R)-3-amino-7-(3-chloro-4-fluorophenyl)-3-(trifluoromethyl)-2,3-dihydrofuro[2,3-c]pyridin-5-yl)-2-hydroxypropyl)-3,4-dicyclopropoxybenzamide], the concentration giving a half-maximal response (EC50) in experiment [1] and in experiment [2] was less than 200 nM in each case.

On to `N[C@@]1(C(F)(F)F)COc2c1cc([C@@](O)(CNC(=O)c1ccc(OC3CC3)c(OC3CC3)c1)C1CC1)nc2-c1ccc(F)c(Cl)c1` [Example 29], for which the half-maximal effective concentration (EC50) was greater than 200 nM in experiment [1] and less than 200 nM in experiment [2] (in Homo sapiens).

For `N[C@@]1(C(F)(F)F)COc2c1cc([C@@](O)(CNC(=O)c1cc(OC3CC3)c3ncccc3c1)C1CC1)nc2-c1ccc(F)c(Cl)c1` [Example 30, N—((S)-2-((R)-3-amino-7-(3-chloro-4-fluorophenyl)-3-(trifluoromethyl)-2,3-dihydrofuro[2,3-c]pyridin-5-yl)-2-cyclopropyl-2-hydroxyethyl)-8-cyclopropoxyquinoline-6-carboxamide], the EC50 in experiment [1] is greater than 200 nM; in experiment [2] it was less than 200 nM.

Consider `COc1cc(C(=O)NC[C@H](O)c2cc3c(c(-c4ccc(F)cc4)n2)OC[C@@]3(N)C(F)(F)F)ccc1OC1CC1` [Example 47], for which the concentration for a half-maximal effect (EC50) in experiment [1] and in experiment [2] was greater than 200 nM in each case.

As for `COc1cc(C(=O)NCC(C)c2cc3c(c(-c4ccc(F)c(F)c4)n2)OC[C@@]3(N)C(F)(F)F)ccc1OC1CC1` (stereo partly drawn) [Example 48], the EC50 in experiment [1] and in experiment [2] was greater than 200 nM throughout.

Consider `COC[C@](O)(CNC(=O)c1ccc(OC2CC2)c(OC)c1)c1cc2c(c(-c3ccc(F)cc3)n1)OC[C@@]2(N)C(F)(F)F` [Example 49, N—((S)-2-((R)-3-amino-7-(4-fluorophenyl)-3-(trifluoromethyl)-2,3-dihydrofuro[2,3-c]pyridin-5-yl)-2-hydroxy-3-methoxypropyl)-4-cyclopropoxy-3-methoxybenzamide], for which the EC50 in experiment [1] was greater than 200 nM; in experiment [2], less than 200 nM.

As a reminder, the EC50 is the concentration at which the effect is half-maximal.
